Key:
RenCa cells = assay: Survival of BALB/c mice inoculated with RenCa cells; assay type: in vivo; conditions: female BALB/c mice, RenCa cells on each flank; qdX5 each week for 4 weeks; birinapant 15 mg/Kg IP, mGM-CSF 10 mg IP
Procedure: 40 female BALB/c mice (10 per treatment group) were inoculated with 1×10^5 RenCa cells on each flank. The mice were subsequently treated qdX5 each week for 4 consecutive weeks with birinapant, mGM-CSF, birinapant and mGM-CSF, or a vehicle control. Each dose of birinapant was 15 mg/Kg IP and each dose of mGM-CSF was 10 mg IP.

[1] = human, in vivo
From the text: In general, Compound 15 can be administered once, twice or three times per week for one to four weeks (or longer). In some situations a treatment interval may be followed by a rest interval. A suitable rest interval includes but is not limited to one week. […] It should be understood that the “on” weeks are consecutive weeks, i.e., two consecutive weeks on drug, three consecutive weeks on drug, and four consecutive weeks (or more) on drug.

[2] = system: MDA-MB-231 cells (human breast cancer), Smac mimetic resistant variant; assay: Viability of MDA-MB-231 cells (MTT) with PBMC culture supernatants and Compound 15; assay type: cell-based; conditions: 1 μM Compound 15 with supernatant of 1 ng/mL GM-CSF-treated Donor 1 PBMC culture, 24 hr, FIG. 3(a)
Procedure: MDA-MB-231 cells (human breast cancer) were seeded into 96-well plates at a density of 10,000 cells/well and allowed to adhere overnight. Next day, culture supernatants from untreated Donor 1 PBMC culture or 1 ng/mL GM-CSF-treated Donor 1 PBMC culture was added to MDA-MB-231 cells in the presence or absence of 1 μM Compound 15, 1 μM Compound 15 plus TNFα neutralizing antibody (R&D Systems #MAB610, 10 μg/mL), 1 μM Compound 15 plus TRAIL neutralizing antibodies (R&D Systems #374-DR and 631-T2, 100 ng/ml each) or 1 μM Compound 15 plus both TNFα and TRAIL neutralizing antibodies. All antibodies were tested in the absence of Compound 15 as control. Viability of MDA-MB-231 cells was measured following 24 hr incubation at 37° C./5% CO2 by MTT (3-(4,5-dimethylthiazol-2-yl)-2,5-diphenyltetrazolium bromide) assay substantially as described in Hansen, M. B., Nielsen, S. E., and Berg, K. (1989) J. Immunol. Methods 119, 203-210.
In an extension study, substantially the same experiment was carried out with culture supernatants from two additional donors, Donors 3 and 4, excluding treatment with the combination of anti-TNFα and anti-TRAIL antibodies.

[3] = system: Mouse renal carcinoma (RenCa) cells; assay: Viability of RenCa cells (MTT) with birinapant plus TNFα or mouse GM-CSF; assay type: cell-based; conditions: in combination with birinapant, TNFα 0.000001 to 100 ng/mL or mouse GM-CSF 0.001 to 10 ng/mL, 24 h
Procedure: Mouse renal carcinoma (RenCa) cells were seeded into 96-well plates at a density of 10,000 cells/well and allowed to adhere overnight. On the next day, birinapant alone or in combination with varying concentrations of TNFα (R&D systems) (0.000001 to 100 ng/mL) or mouse GM-CSF (R&D Systems) (0.001 to 10 ng/mL) were added. Following a 24 h incubation, viability was assessed by MTT assay.

[4] = system: human peripheral blood mononuclear cells (PBMCs); assay: Ex-vivo treatment of PBMCs with GM-CSF; cytokine concentration in culture supernatants by ELISA; assay type: cell-based
Procedure: Peripheral blood mononuclear cells (PBMC) were isolated from two healthy male donors using BD Vacutainer® CPT cell preparation tubes (Becton, Dickinson and Company, Franklin Lakes N.J. 07417, REF 362753) according to manufacturer's protocol. After isolation, mononuclear cell layer was removed from CPT tube and transferred to a sterile 15 mL centrifuge tube. Cells were washed by adding 10 mL of Dulbecco's Modified Eagle Medium (DMEM) containing 10% fetal bovine serum (FBS) to cells, tube was inverted several times to mix and cells were pelleted by centrifugation at 1500 RPM for 10 minutes. Following centrifugation, media was removed and cells were resuspended in DMEM containing 10% FBS to a concentration of 1×10^6 cells/mL. Cells were next seeded into 6-well dishes at 1×10^6 cells/mL in 2 mL/well. Following 2 hr incubation at 37° C./5% CO2, human recombinant GM-CSF (R&D Systems, Minneapolis Minn. 55413, Catalog # #215-GM) was added to cells at indicated concentrations. Following overnight incubation at 37° C./5% CO2, media was collected into sterile 15 mL centrifuge tubes and cells were removed by centrifugation at 1500 RPM for 10 minutes. Media was transferred to new, sterile tubes and frozen at −80° C. until use.
TNFα concentration in culture supernatants was determined by ELISA (BD OptEIA TNF kit II) according to manufacturer's recommendations. Absorbance values were analyzed using GraphPad Prism linear regression analysis and reported as pg/mL TNFα.
In a first extension of the preceding study, substantially the same experiment was carried out with PBMCs from two additional donors, Donors 3 and 4. In this first extension study, cells were treated with GM-CSF, GM-CSF+1.0 uM birinapant.
In a second extension study, substantially the same experiment was subsequently carried out with new PBMC culture supernatants from Donors 1, 3, and 4.

CC[C@H](NC(=O)[C@H](C)NC)C(=O)N1C[C@@H](O)C[C@H]1Cc1c(-c2[nH]c3cc(F)ccc3c2C[C@@H]2C[C@H](O)CN2C(=O)[C@H](CC)NC(=O)[C@H](C)NC)[nH]c2cc(F)ccc12 [Compound 15, N-{1S-[2R-(6,6′-Difluoro-3′-{4S-hydroxy-1-[2S-(2S-methylamino-propionylamino)-butyryl]-pyrrolidin-2R-ylmethyl}-1H,1′H-[2,2′]biindolyl-3-ylmethyl)-4S-hydroxy-pyrrolidine-1-carbonyl]-propyl}-2S-methylamino-propionamide]
time to which 50% of mice survived (RenCa cells): approximately 40 days
half-life in the patient [1]: long half-life
viability of MDA-MB-231 cells / induction of apoptosis [2]: sensitization of MDA-MB-231 Smac mimetic resistant variant to Compound 15

GM-CSF: Granulocyte macrophage colony-stimulating factor; human recombinant GM-CSF (R&D Systems) in Example 1
RenCa cell viability [3]: unaffected
expression and secretion of TNFα by PBMCs ([4]; Donors 1 and 2, overnight incubation with GM-CSF, ELISA, FIGS. 1(a),(b)): increased expression and secretion of TNFα
expression and secretion of TNFα by PBMCs ([4]; first extension study, Donors 3 and 4, FIGS. 1(c),(d)): increased expression and secretion of TNFα
expression and secretion of TNFα by PBMCs ([4]; second extension study, new PBMC culture supernatants from Donors 1, 3 and 4, FIGS. 2(a)-(c)): increased expression and secretion of TNFα

TNFα [reference compound]
RenCa cell viability [3]: decreased in direct relation to the concentration of TNFα

B1: mGM-CSF: mouse GM-CSF (R&D Systems) (protein, UniProt P01587 18-141, looked up)
Granulocyte-macrophage …: APTRSPITVTRPWKHVEAIKEALNLLDDMPVTLNEEVEVVSNEFSFKKLTCVQTRLKIFEQGLRGNFTKLKGALNMTASYYQTYCPPTPETDCETQVTTYADFIDSLKTFLTDIPFECKKPGQK
time to which 50% of mice survived (RenCa cells): approximately 30 days

From US20150190470A1, “COMBINATION THERAPY” (TETRALOGIC PHARMACEUTICALS CORPORATION, priority 2012, published 2015)
